Results published in PubChem BioAssay (NCI).
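Dose response: 5 concentrations. Exposure: 48 h. Format: 96-well plates. Endpoint: linear interpolation; highest concentration if not reached. GI50 = concentration required for 50% inhibition of growth. TGI denotes the concentration required for complete inhibition of growth.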

Tests used:
Experiment in all cases: inhibition of tumour cell growth, NCI panel, 48 h
MALME-3M melanoma = tested on: MALME-3M melanoma
SR leukemia = tested on: SR leukemia
SF-295 CNS = tested on: SF-295 CNS
LOX IMVI melanoma = tested on: LOX IMVI melanoma
HL-60(TB) leukemia = tested on: HL-60(TB) leukemia
TK-10 renal = tested on: TK-10 renal
UACC-62 melanoma = tested on: UACC-62 melanoma
DU-145 prostate = tested on: DU-145 prostate
HT29 colon = tested on: HT29 colon
OVCAR-5 ovarian = tested on: OVCAR-5 ovarian
IGROV1 ovarian = tested on: IGROV1 ovarian
OVCAR-8 ovarian = tested on: OVCAR-8 ovarian
K-562 leukemia = tested on: K-562 leukemia
MOLT-4 leukemia = tested on: MOLT-4 leukemia
SK-MEL-28 melanoma = tested on: SK-MEL-28 melanoma
HCC-2998 colon = tested on: HCC-2998 colon
NCI-H226 lung = tested on: NCI-H226 lung
RXF 393 renal = tested on: RXF 393 renal
HOP-92 NSCLC = tested on: HOP-92 NSCLC
A549 NSCLC = tested on: A549 NSCLC
MDA-MB-435 = tested on: MDA-MB-435
CCRF-CEM leukemia = tested on: CCRF-CEM leukemia
NCI-H522 lung = tested on: NCI-H522 lung
SNB-19 CNS = tested on: SNB-19 CNS
PC-3 prostate = tested on: PC-3 prostate
CAKI-1 renal = tested on: CAKI-1 renal
ACHN renal = tested on: ACHN renal
SN12C renal = tested on: SN12C renal
NCI/ADR-RES ovarian = tested on: NCI/ADR-RES ovarian
SNB-75 CNS = tested on: SNB-75 CNS
T-47D breast = tested on: T-47D breast
EKVX NSCLC = tested on: EKVX NSCLC
HCT-116 colon = tested on: HCT-116 colon
MCF7 breast = tested on: MCF7 breast
HS 578T breast = tested on: HS 578T breast
BT-549 breast = tested on: BT-549 breast
KM12 colon = tested on: KM12 colon
MDA-MB-231 breast = tested on: MDA-MB-231 breast
UACC-257 melanoma = tested on: UACC-257 melanoma
SF-539 CNS = tested on: SF-539 CNS
SF-268 CNS = tested on: SF-268 CNS
UO-31 renal = tested on: UO-31 renal
NCI-H460 lung = tested on: NCI-H460 lung
COLO 205 colon = tested on: COLO 205 colon
A498 renal = tested on: A498 renal
SK-MEL-5 melanoma = tested on: SK-MEL-5 melanoma
786-0 renal = tested on: 786-0 renal
M14 melanoma = tested on: M14 melanoma
SK-MEL-2 melanoma = tested on: SK-MEL-2 melanoma
HOP-62 NSCLC = tested on: HOP-62 NSCLC
U251 CNS = tested on: U251 CNS
HCT-15 colon = tested on: HCT-15 colon
SK-OV-3 ovarian = tested on: SK-OV-3 ovarian
NCI-H23 lung = tested on: NCI-H23 lung
SW-620 colon = tested on: SW-620 colon
OVCAR-4 ovarian = tested on: OVCAR-4 ovarian
RPMI-8226 leukemia = tested on: RPMI-8226 leukemia

Cn1ccnc1C(=O)/C=C/c1ccc(CNC(=O)c2ccc(F)cc2)cc1
GI50 (MALME-3M melanoma): 4.48 µM
TGI (MALME-3M melanoma): 12.2 µM
GI50 (SR leukemia): 0.792 µM
TGI (SR leukemia): > 25 µM
GI50 (SF-295 CNS): 9.12 µM
TGI (SF-295 CNS): > 25 µM
GI50 (LOX IMVI melanoma): 1.19 µM
TGI (LOX IMVI melanoma): 4.4 µM
GI50 (HL-60(TB) leukemia): 2.99 µM
TGI (HL-60(TB) leukemia): 10.4 µM
GI50 (TK-10 renal): 5.92 µM
TGI (TK-10 renal): 17.4 µM
GI50 (UACC-62 melanoma): 4.26 µM
TGI (UACC-62 melanoma): 9.47 µM
GI50 (DU-145 prostate): 1.5 µM
TGI (DU-145 prostate): 4.89 µM
GI50 (HT29 colon): 2.98 µM
TGI (HT29 colon): 7.36 µM
GI50 (OVCAR-5 ovarian): 3.54 µM
TGI (OVCAR-5 ovarian): 9.04 µM
GI50 (IGROV1 ovarian): 3.03 µM
TGI (IGROV1 ovarian): 12.1 µM
GI50 (OVCAR-8 ovarian): 6.62 µM
TGI (OVCAR-8 ovarian): > 25 µM
GI50 (K-562 leukemia): 1.02 µM
TGI (K-562 leukemia): > 25 µM
GI50 (MOLT-4 leukemia): 5.03 µM
TGI (MOLT-4 leukemia): 15.8 µM
GI50 (SK-MEL-28 melanoma): 4.82 µM
TGI (SK-MEL-28 melanoma): 11.6 µM
GI50 (HCC-2998 colon): 3.8 µM
TGI (HCC-2998 colon): 7.54 µM
GI50 (NCI-H226 lung): 6.9 µM
TGI (NCI-H226 lung): > 25 µM
GI50 (RXF 393 renal): 3.11 µM
TGI (RXF 393 renal): 7.27 µM
GI50 (HOP-92 NSCLC): 5.32 µM
TGI (HOP-92 NSCLC): 24.7 µM
GI50 (A549 NSCLC): 5.74 µM
TGI (A549 NSCLC): > 25 µM
GI50 (MDA-MB-435): 4.08 µM
TGI (MDA-MB-435): 10.4 µM
GI50 (CCRF-CEM leukemia): 2.55 µM
TGI (CCRF-CEM leukemia): > 25 µM
GI50 (NCI-H522 lung): 4.04 µM
TGI (NCI-H522 lung): 7.74 µM
GI50 (SNB-19 CNS): 3.39 µM
TGI (SNB-19 CNS): 10.5 µM
GI50 (PC-3 prostate): 3.87 µM
TGI (PC-3 prostate): 10.8 µM
GI50 (CAKI-1 renal): 2.36 µM
TGI (CAKI-1 renal): > 25 µM
GI50 (ACHN renal): 4.17 µM
TGI (ACHN renal): 8.72 µM
GI50 (SN12C renal): 6.67 µM
TGI (SN12C renal): > 25 µM
GI50 (NCI/ADR-RES ovarian): 6.06 µM
TGI (NCI/ADR-RES ovarian): > 25 µM
GI50 (SNB-75 CNS): 2.5 µM
TGI (SNB-75 CNS): > 25 µM
GI50 (T-47D breast): 2.54 µM
TGI (T-47D breast): 22.9 µM
GI50 (EKVX NSCLC): 10.4 µM
TGI (EKVX NSCLC): > 25 µM
GI50 (HCT-116 colon): 3.46 µM
TGI (HCT-116 colon): 8.47 µM
GI50 (MCF7 breast): 1.67 µM
TGI (MCF7 breast): > 25 µM
GI50 (HS 578T breast): 8.13 µM
TGI (HS 578T breast): > 25 µM
GI50 (BT-549 breast): 2.61 µM
TGI (BT-549 breast): 6.77 µM
GI50 (KM12 colon): 2.13 µM
TGI (KM12 colon): 5.44 µM
GI50 (MDA-MB-231 breast): 5.9 µM
TGI (MDA-MB-231 breast): > 25 µM
GI50 (UACC-257 melanoma): 5.52 µM
TGI (UACC-257 melanoma): 19.2 µM
GI50 (SF-539 CNS): 2.59 µM
TGI (SF-539 CNS): 6.28 µM
GI50 (SF-268 CNS): 2.98 µM
TGI (SF-268 CNS): 9.42 µM
GI50 (UO-31 renal): 2.63 µM
TGI (UO-31 renal): 6.19 µM
GI50 (NCI-H460 lung): 3.4 µM
TGI (NCI-H460 lung): 10.5 µM
GI50 (COLO 205 colon): 2.78 µM
TGI (COLO 205 colon): 7.05 µM
GI50 (A498 renal): 3.35 µM
TGI (A498 renal): 6.79 µM
GI50 (SK-MEL-5 melanoma): 7.08 µM
TGI (SK-MEL-5 melanoma): 21 µM
GI50 (786-0 renal): 4.12 µM
TGI (786-0 renal): 12.1 µM
GI50 (M14 melanoma): 4.7 µM
TGI (M14 melanoma): 12.2 µM
GI50 (SK-MEL-2 melanoma): 4.95 µM
TGI (SK-MEL-2 melanoma): 14.8 µM
GI50 (HOP-62 NSCLC): 3.69 µM
TGI (HOP-62 NSCLC): 12.5 µM
GI50 (U251 CNS): 2.35 µM
TGI (U251 CNS): 6.7 µM
GI50 (HCT-15 colon): 1.9 µM
TGI (HCT-15 colon): > 25 µM
GI50 (SK-OV-3 ovarian): 7.54 µM
TGI (SK-OV-3 ovarian): > 25 µM
GI50 (NCI-H23 lung): 3.58 µM
TGI (NCI-H23 lung): 9.3 µM
GI50 (SW-620 colon): 2.77 µM
TGI (SW-620 colon): 8.72 µM
GI50 (OVCAR-4 ovarian): 5.49 µM
TGI (OVCAR-4 ovarian): > 25 µM
GI50 (RPMI-8226 leukemia): 1.01 µM
TGI (RPMI-8226 leukemia): 5.98 µM
